Results published in patent US6344344B1, “Method for producing uridine-5'-monophosphate by fermentation using mutant strains of coryneform bacteria” (Ajinomoto Co., Inc., priority 1999, dated 2002).
Where two headings read alike, the source gives them in different places.

Columns and labels:
Format in all cases: cell-based
[1] = test system: Corynebacterium ammoniagenes ATCC 6872; test: Growth of the strain in the presence of pyrimidine analogues; settings: basal agar medium A
[2] = test system: Corynebacterium ammoniagenes VKPM B-6307; settings: for Growth of the strains B-6307: basal agar medium A; for Growth of the strain VKPM B-6307 With addition (medium B): medium B (guanine, arginine, casamino acid added)
[3] = test system: Corynebacterium ammoniagenes LK 40-2 (VKPM B-7811); test: Growth of the strain in the presence of pyrimidine analogues
Description: Corynebacterium ammoniagenes VKPM B-6307 was treated with 50 μg/ml of NTG for 20 minutes followed by ampicillin-enrichment procedure for obtaining mutants which could not utilize uridine effectively as a sole carbon source (uridine was added into liquid medium A of Table 2 instead of glucose). The obtained mutant cells were plated on a medium B of Table 2 supplemented with guanine (100 μg/ml), arginine (500 μg/ml), casamino acids (200 μg/ml) and 100 μg/ml of 5-fluorouridine.
The inoculated plates were incubated at 30° C. for 3 days.
The extent of resistance to various pyrimidine analogues of this strain as well as that of the parent strain VKPM B-6307 is shown in Table 4.
(§1) Extent of resistance of this strain to various pyrimidine analogues as well as that of the parent strains LK 40-2 and LK 75-15 is shown in Table 11.

[4] = test system: Corynebacterium ammoniagenes LK 75-15 (VKPM B-7812); test: as above
From the text: as §1

[5] = test system: Corynebacterium ammoniagenes LK 75-66 (VKPM B-7813); test: as above
From the text: as §1

[6] = test system: Corynebacterium ammoniagenes LK 75-15 (VKPM B-7812); test: as above; remark: listed apart in the source
[7] = medium B with 100 μg/ml analogue, 30° C., 3 days

O=c1[nH]c(=O)n([C@@H]2O[C@H](CO)[C@@H](O)[C@H]2O)cc1F [5-Fluouridine]
Growth of the strains ATCC6872 ([1]; analogue 100 μg/ml): − | Growth of the strains ATCC6872 ([1]; analogue 200 μg/ml): − | Growth of the strains ATCC6872 ([1]; analogue 400 μg/ml): − | Growth of the strains ATCC6872 ([1]; analogue 600 μg/ml): − | Growth of the strain B-6307 ([2]; Table 4, analogue 100 μg/ml): − | Growth of the strain B-6307 ([2]; Table 4, analogue 300 μg/ml): − | Growth of the strain B-6307 ([2]; Table 4, analogue 500 μg/ml): − | Growth of the strain B-6307 ([2]; Table 4, analogue 1000 μg/ml): − | Growth of the strain B-6307 ([2]; Table 8, analogue 100 μg/ml): − | Growth of the strain B-6307 ([2]; Table 8, analogue 300 μg/ml): − | Growth of the strain B-6307 ([2]; Table 8, analogue 500 μg/ml): − | Growth of the strain B-6307 ([2]; Table 8, analogue 1000 μg/ml): − | Growth of the strains B-6307 ([2]; analogue 100 μg/ml): + | Growth of the strain VKPM B-6307 No addition (medium A) ([2]; analogue 100 μg/ml): + | Growth of the strain VKPM B-6307 With addition (medium B) ([2]; analogue 100 μg/ml): − | Growth of the strains B-6307 ([2]; analogue 200 μg/ml): + | Growth of the strain VKPM B-6307 No addition (medium A) ([2]; analogue 200 μg/ml): + | Growth of the strain VKPM B-6307 With addition (medium B) ([2]; analogue 200 μg/ml): − | Growth of the strains B-6307 ([2]; analogue 400 μg/ml): + | Growth of the strain VKPM B-6307 No addition (medium A) ([2]; analogue 500 μg/ml): + | Growth of the strain VKPM B-6307 With addition (medium B) ([2]; analogue 500 μg/ml): − | Growth of the strains B-6307 ([2]; analogue 600 μg/ml): + | Growth of the strain VKPM B-6307 No addition (medium A) ([2]; analogue 1000 μg/ml): + | Growth of the strain VKPM B-6307 With addition (medium B) ([2]; analogue 1000 μg/ml): − | growth of the parent strain on supplemented medium [2, 7]: could not grow | Growth of the strain LK 40-2 ([3]; Table 4, analogue 100 μg/ml): + | Growth of the strain LK 40-2 ([3]; Table 4, analogue 300 μg/ml): + | Growth of the strain LK 40-2 ([3]; Table 4, analogue 500 μg/ml): + | Growth of the strain LK 40-2 ([3]; Table 4, analogue 1000 μg/ml): + | Growth of the strain LK 40-2 ([3]; Table 11, analogue 100 μg/ml): + | Growth of the strain LK 40-2 ([3]; Table 11, analogue 300 μg/ml): + | Growth of the strain LK 40-2 ([3]; Table 11, analogue 500 μg/ml): + | Growth of the strain LK 40-2 ([3]; Table 11, analogue 1000 μg/ml): + | growth of strain LK 40-2 on supplemented medium [3, 7]: capable of growing | Growth of the Strain LK 75-15 ([4]; Table 11, analogue 100 μg/ml): + | Growth of the Strain LK 75-15 ([4]; Table 11, analogue 1000 μg/ml): − | Growth of the Strain LK 75-66 ([5]; Table 11, analogue 100 μg/ml): + | Growth of the Strain LK 75-66 ([5]; Table 11, analogue 300 μg/ml): + | Growth of the Strain LK 75-66 ([5]; Table 11, analogue 500 μg/ml): + | Growth of the Strain LK 75-66 ([5]; Table 11, analogue 1000 μg/ml): − | Growth of the Strain LK 75-15 ([6]; Table 8, analogue 100 μg/ml): + | Growth of the Strain LK 75-15 ([6]; Table 8, analogue 300 μg/ml): + | Growth of the Strain LK 75-15 ([6]; Table 8, analogue 500 μg/ml): − | Growth of the Strain LK 75-15 ([6]; Table 8, analogue 1000 μg/ml): − | Growth of the Strain LK 75-15 ([6]; Table 11, analogue 300 μg/ml): + | Growth of the Strain LK 75-15 ([6]; Table 11, analogue 500 μg/ml): −

O=c1cn[nH]c(=O)[nH]1 [6-Azauracil]
Growth of the strains ATCC6872 ([1]; analogue 500 μg/ml): − | Growth of the strains ATCC6872 ([1]; analogue 1000 μg/ml): − | Growth of the strains ATCC6872 ([1]; analogue 3000 μg/ml): − | Growth of the strains ATCC6872 ([1]; analogue 5000 μg/ml): − | Growth of the strain B-6307 ([2]; Table 4, analogue 1000 μg/ml): − | Growth of the strain B-6307 ([2]; Table 8, analogue 1000 μg/ml): − | Growth of the strains B-6307 ([2]; analogue 500 μg/ml): + | Growth of the strains B-6307 ([2]; analogue 1000 μg/ml): + | Growth of the strains B-6307 ([2]; analogue 3000 μg/ml): + | Growth of the strains B-6307 ([2]; analogue 5000 μg/ml): + | Growth of the strain LK 40-2 ([3]; Table 4, analogue 1000 μg/ml): + | Growth of the strain LK 40-2 ([3]; Table 11, analogue 1000 μg/ml): + | Growth of the Strain LK 75-15 ([4]; Table 11, analogue 1000 μg/ml): + | Growth of the Strain LK 75-66 ([5]; Table 11, analogue 1000 μg/ml): + | Growth of the Strain LK 75-15 ([6]; Table 8, analogue 1000 μg/ml): +
